Measurements reported in ChEMBL document CHEMBL5728196, “Phenylate derivative, preparation method therefor, and pharmaceutical composition and uses thereof” (2021).
pIC50: −log10 of the molar value.

Target: Programmed cell death protein 1/Programmed cell death 1 ligand 1 (Homo sapiens, UniProt Q15116+Q9NZQ7)
Assay: Inhibitory Activity Assay: 1. In vitro activity evaluation: Cisbio PD-1/PD-L1 binding assay kit was applied for the detection method of in vitro enzymology level.Screening Principles and Methods of PD-1/PD-L1 Small Molecule Inhibitors1) Principle: PD-1 protein is with HIS tag, and PD-1 ligand PD-L1 is with hFc tag. Eu labeled anti-hFc antibody and XL665 labeled anti-HIS antibody are combined with the above two label proteins respectively. After laser excitation, energy can be transferred from donor Eu to receptor XL665, allowing XL665 to glow. […] Reagents should be dispensed in the following order. For 384-well white ELISA plate, 2 μl of diluent or target compound diluted with diluent was added to each well, and then 4 μl of PD-1 protein and 4 μl of PD-L1 protein were added per well, incubated for 15 min at room temperature; and 10 μl of a mixture of anti-Tag1-Eu3+ and anti-Tag2-XL665 was added per well and incubated for 1 h to 4 h at room temperature and the fluorescence signals at 665 nm and 620 nm were measured with an Envison instrument. HTRF rate=(665 nm/620 nm)*104. 8-10 concentrations were detected for each compound and IC50 was calculated by Graphpad software.
Assay type: protein-complex assay

Sequence of Programmed cell death protein 1/Programmed cell death 1 ligand 1 (Q15116 whole entry): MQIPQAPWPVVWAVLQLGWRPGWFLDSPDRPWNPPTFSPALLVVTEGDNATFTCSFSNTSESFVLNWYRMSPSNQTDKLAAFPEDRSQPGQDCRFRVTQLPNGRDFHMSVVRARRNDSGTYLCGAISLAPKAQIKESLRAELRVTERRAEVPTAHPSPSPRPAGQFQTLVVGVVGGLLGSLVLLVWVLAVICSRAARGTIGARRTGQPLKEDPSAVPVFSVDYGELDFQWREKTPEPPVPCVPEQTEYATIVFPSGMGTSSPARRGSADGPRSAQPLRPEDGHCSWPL
Sequence of Programmed cell death protein 1/Programmed cell death 1 ligand 1 (Q9NZQ7 whole entry): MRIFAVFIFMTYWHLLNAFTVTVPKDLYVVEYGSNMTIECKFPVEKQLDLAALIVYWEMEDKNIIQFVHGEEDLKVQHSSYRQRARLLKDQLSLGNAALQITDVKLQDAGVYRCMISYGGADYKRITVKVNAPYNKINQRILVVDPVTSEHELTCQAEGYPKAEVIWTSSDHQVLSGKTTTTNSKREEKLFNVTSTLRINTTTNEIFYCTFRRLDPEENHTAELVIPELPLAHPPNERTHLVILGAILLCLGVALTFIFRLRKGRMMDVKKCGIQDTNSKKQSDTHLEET

## NC(=O)COc1cc(OCc2cccc(-c3ccc4c(c3)OCCO4)c2Br)c(Cl)cc1CN1C[C@@H](O)C[C@H]1C(=O)O
  pIC50: 6.74
